In US12162901B2, “N-acetylated sialic acids and related sialosides” (priority 2016, dated 2024):

Tests used:
[1] = biological target: T1, human cytosolic sialidase hNEU2 (Homo sapiens, UniProt Q9Y3R4); assay: Sialidase substrate specificity of Leg glycosides (HPLC/capillary electrophoresis), hNEU2; assay type: biochemical; conditions: 37° C., 16 hs, pH 5.0
T1 construct: made in house

A. ureafaciens sialidase = assay: Sialidase substrate specificity of Leg glycosides (HPLC/capillary electrophoresis), A. ureafaciens sialidase; assay type: biochemical, Arthrobacter ureafaciens; conditions: pH 5.5
V. cholerae sialidase = biological target: T2, V. cholerae sialidase (Vibrio cholerae serotype O1, UniProt P0C6E9); assay: Sialidase substrate specificity of Leg glycosides (HPLC/capillary electrophoresis), V. cholerae sialidase; assay type: biochemical; conditions: pH 5.5
T2 construct: purchased Roche

[2] = biological target: C. perfringens sialidase (CpNanH) (Clostridium perfringens, UniProt P10481); assay type: biochemical; conditions: 37° C., 16 hs, pH 5.0
BiNanH2 = biological target: T3, BiNanH2 (Bifidobacterium longum, UniProt A0ACD7UU12); assay: Sialidase substrate specificity of Leg glycosides (HPLC/capillary electrophoresis), BiNanH2; assay type: biochemical, Bifidobacterium infantis; conditions: 37° C., 16 hs, pH 5.0
T3 sequence (A0ACD7UU12 1-394): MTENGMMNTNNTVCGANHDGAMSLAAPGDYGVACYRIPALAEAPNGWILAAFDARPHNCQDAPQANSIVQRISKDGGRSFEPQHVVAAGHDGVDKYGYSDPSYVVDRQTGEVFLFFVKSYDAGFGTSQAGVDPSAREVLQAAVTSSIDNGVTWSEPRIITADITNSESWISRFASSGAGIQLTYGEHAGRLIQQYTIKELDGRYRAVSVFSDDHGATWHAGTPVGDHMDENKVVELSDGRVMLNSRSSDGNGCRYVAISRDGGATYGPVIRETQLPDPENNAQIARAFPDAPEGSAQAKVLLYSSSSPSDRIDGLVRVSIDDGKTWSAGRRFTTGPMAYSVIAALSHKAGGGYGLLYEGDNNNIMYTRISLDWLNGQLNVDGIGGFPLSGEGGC

SpNanA = biological target: T4, SpNanA (Streptococcus pneumoniae, UniProt P62575); assay: Sialidase substrate specificity of Leg glycosides (HPLC/capillary electrophoresis), SpNanA; assay type: biochemical; conditions: 37° C., 16 hs, pH 6.0
T4 construct: made in house

SpNanB = biological target: T5, SpNanB (Streptococcus pneumoniae serotype 4, UniProt Q54727, E68D/K536E/K577E/N393D/S59P); assay: Sialidase substrate specificity of Leg glycosides (HPLC/capillary electrophoresis), SpNanB; assay type: biochemical; conditions: 37° C., 16 hs, pH 6.0
T5 construct: made in house

SpNanC = SpNanC (Streptococcus pneumoniae, UniProt A0A0H2UQE4); assay: Sialidase substrate specificity of Leg glycosides (HPLC/capillary electrophoresis), SpNanC; assay type: biochemical; conditions: 37° C., 16 hs, pH 6.5
[3] = biological target: T6, PmST1 (α2-3-sialidase activity) (Pasteurella multocida, UniProt Q15KI8); assay: Kinetic studies for PmST1 α2-3-sialidase activity (HPLC); assay type: biochemical; conditions: 0.4 mM CMP
T6 construct: made in house
Procedure: Kinetic studies for PmST1 were performed in duplicates at 37° C. for 10 min. […] The reactions were stopped by adding 20 μL of pre-chilled ethanol. The mixtures were then centrifuged and the supernatants were analyzed by the HPLC system described above for sialidase substrate specificity studies assays. Apparent kinetic parameters were obtained by varying substrate concentrations from 0.1-40 mM (0.1, 0.2, 0.4, 1, 2, 4, 10, 20, and 40 mM) and fitting the data (the average values of duplicate assay results) into the Michaelis-Menten equation using Grafit 5.0.

BJA-B K20 cells [4] = assay: Feeding of free sialic acids to BJA-B K20 cells, PToV probes, flow cytometry; assay type: cell-based, human; conditions: 1 mM free sialic acid, three days of feeding
human CD22-Fc/Siglec-2 = assay: Feeding of free sialic acids to BJA-B K20 cells, probing with human CD22-Fc, flow cytometry; assay type: cell-based; conditions: 3 mM, 3 days of feeding
Procedure: Cell Culture and Sugar Supplementation.
Flow Cytometry. Cells were washed with PBS and incubated with 10 μg/mL of PToV probes in PBS with 1% BSA and 10 mM EDTA for 30 minutes on ice. Subsequently, cells were washed with PBS and incubated with PE goat anti-human IgG antibody for 30 minutes on ice. After an additional washing step, the cells were analyzed by FACSCalibur (BD).
After 3 days of feeding, BJA-B K20 cells were probed with human CD22-Fc/Siglec-2 to detect ligands (FIG. 7). […] However, when the cells were grown in the presence of Neu5Ac9NAc, the expression of the CD22 ligand was minimal (FIG. 7C). […] This supports previous observations that human CD22-Fc recognizes α2-6-linked sialosides with Neu5Ac or N-glycolylneuraminic acid (Neu5Gc) as the preferred naturally existing sialic acid form and 9-O-acetyl modification on sialic acid blocks the binding.

influenza C virus = conditions: background statement; cited from earlier work
BJA-B K20 cells [5] = assay: Feeding of free sialic acids to BJA-B K20 cells, DMB derivatization and HPLC of membrane sialic acids; conditions: 1 mM for 3 days; sialic acids released with Vibrio cholerae neuraminidase
[6] = biological target: T7, wild-type PmST1 (α2-3-sialidase activity) (Pasteurella multocida, UniProt Q15KI8); assay: Sialidase substrate specificity of Leg glycosides (HPLC/capillary electrophoresis), PmST1; assay type: biochemical; conditions: 37° C., 16 hs, CMP (0.4 mM), pH 5.5
T7 construct: made in house

T1 sequence (Q9Y3R4 whole entry): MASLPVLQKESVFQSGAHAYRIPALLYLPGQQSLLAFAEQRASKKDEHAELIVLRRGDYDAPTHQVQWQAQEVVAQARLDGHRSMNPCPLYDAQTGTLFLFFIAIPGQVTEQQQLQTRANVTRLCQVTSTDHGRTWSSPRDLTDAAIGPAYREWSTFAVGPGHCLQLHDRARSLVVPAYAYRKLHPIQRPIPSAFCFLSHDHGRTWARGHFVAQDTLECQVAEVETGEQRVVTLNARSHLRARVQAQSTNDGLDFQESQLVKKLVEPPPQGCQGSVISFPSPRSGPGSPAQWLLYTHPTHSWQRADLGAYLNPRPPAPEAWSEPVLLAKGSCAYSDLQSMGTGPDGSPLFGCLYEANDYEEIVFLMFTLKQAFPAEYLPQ

| SMILES | activity of hNEU2 for the compound [1] | activity of A. ureafaciens sialidase for the compound (A. ureafaciens sialidase) | activity of V. cholerae sialidase for the compound (V. cholerae sialidase) | activity of C. perfringens sialidase (CpNanH) for the compound [2] | activity of BiNanH2 for the compound (BiNanH2) | activity of SpNanA for the compound (SpNanA) | activity of SpNanB for the compound (SpNanB) | activity of SpNanC for the compound (SpNanC) | α2-3-sialidase activity of PmST1, fold less efficient than for Neu5Acα2-3GalβpNP [3] | cell surface incorporation detected with PToV probe (BJA-B K20 cells [4]) | expression of CD22 ligand on fed cells (human CD22-Fc/Siglec-2) | binding to influenza C virus and fate under hemagglutinin-esterase (influenza C virus) | incorporation on the cell membrane (DMB-HPLC) (BJA-B K20 cells [5]) | substrate for the α2-3-sialidase activity of wild-type PmST1 [6] |
| --- | --- | --- | --- | --- | --- | --- | --- | --- | --- | --- | --- | --- | --- | --- |
| CC(=O)N[C@@H]1C(O)C[C@](OC2C(O)[C@H](Oc3ccc([N+](=O)[O-])cc3)OC(CO)[C@@H]2O)(C(=O)O)OC1[C@H](NC(C)=O)[C@@H](C)O (stereo partly drawn) [3-19, Leg5,7Ac2α2-3GalβpNP] | did not show activity | did not show activity | did not show activity | did not show activity | did not show activity | did not show activity | did not show activity | did not show activity | about 30 fold | – | – | – | – | – |
| CC(=O)NC[C@@H](O)[C@@H](O)[C@@H]1OC(O)(C(=O)O)C[C@H](O)[C@H]1NC(C)=O (stereo partly drawn) [Neu5Ac9NAc, 5,9-Diacetamido-3,5,9-Trideoxy-D-glycero-D-galacto-2-nonulopyranosylonic Acid] | – | – | – | – | – | – | – | – | – | detected on the cell surface | minimal | mimic Neu5,9Ac2 in binding to influenza C virus without being destroyed by esterase activity | showed incorporation | – |
| C[C@@H](O)[C@@H](N=[N+]=[N-])C1O[C@@](OC2C(O)[C@H](Oc3ccc([N+](=O)[O-])cc3)OC(CO)[C@@H]2O)(C(=O)O)CC(O)[C@H]1N=[N+]=[N-] (stereo partly drawn) [3-13, Leg5,7diN3α2-3GalβpNP] | did not show activity | did not show activity | did not show activity | did not show activity | did not show activity | did not show activity | did not show activity | did not show activity | – | – | – | – | – | not |
